Source: US9963514B2, “BAG3 receptor binding molecules for use as a medicament” (BIOUNIVERSA S.R.L., priority 2013, dated 2018)

Legend:
J774 A1 cells [1] = assay: Binding of FITC-BAG3 to J774 macrophages by flow cytometry, with competition by BAG3-specific peptides or anti-BAG3 F(ab')2; parameters: species or system murine
Protocol: J774 A1 cells (1×10^6 cells/ml) were incubated with different concentrations of BAG3 FITC protein ([…]). FITC-BSA (70 nM) was used as a negative control (grey). Fluorescence was analyzed by flow cytometry. (FIG. 10).
In particular, J774 cells were incubated with 14 nM FITC-BAG3 protein and with 625 nM BAG3-specific peptides (peptide 1, peptide 2, peptide 3, peptide 4, or a scrambled peptide) or with 420 nM of anti-BAG3 F(ab′) antibodies (mouse monoclonal antibodies AC1, AC2 and the polyclonal antibody produced in rabbit TOS2). Fragments F(ab′) 2 of rabbit or mouse IgG were used as a negative control.

heart muscle cells (HCM) = assay: Confocal fluorescence microscopy of rBAG3-FITC binding to HCM cells; settings: 0.1% NaN3, 1 h
Protocol: (§1) (FIG. 9). Confocal fluorescence microscopy analysis was performed to measure the binding of rBAG3-FITC to HCM, J774 A1, and PANC-1 cells. The BAG3 recombinant protein and the BSA (bovine serum albumin) (SIGMA) were conjugated to FITC using the FluoroTag Conjugation FITC kit (SIGMA) following the manufacturer's instructions. Equal amounts of rBAG3-FITC and BSA-FITC were added to the three cell lines in the presence of 0.1% NaN3 for 1 h. β-integrin protein was used as a positive control. Fluorescence was analyzed using a Zeiss LSM confocal microscope.

[2] = tested on: pancreatic adenocarcinoma cells (PANC-1); assay: Confocal fluorescence microscopy of rBAG3-FITC binding to PANC-1 cells; settings: 0.1% NaN3, 1 h
Protocol: as §1

J774 A1 cells [3] = assay: Confocal fluorescence microscopy of rBAG3-FITC binding to J774 cells; parameters: species or system murine; settings: 1 h
Protocol: The binding of the BAG3 protein to the cell surface of the J774 cells was then confirmed through conjugation of the recombinant protein with a fluorophore (FIG. 8). The BAG3 recombinant protein was then conjugated to FITC using the FluoroTag Conjugation FITC kit (SIGMA). Equal amounts of BSA-FITC (negative control) and rBAG3-FITC were added to the culture medium for 1 h. The cells were then fixed with a 3.7% formaldehyde solution and analyzed with a Zeiss LSM confocal microscope.
as §1, with “Confocal” for “(FIG. 9). Confocal”

J774 A1 macrophages [4] = assay: IL-6 release by J774 A1 macrophages incubated with rBAG3 (ELISA, Example 13); type: cell-based, murine; settings: J774A.1 cells, 5 hours
Protocol: J774A.1 cells at 80% confluence were incubated with a control medium, BSA, LPS, or BAG3 for 5 hours. IL-6 was measured in the cell culture medium using an ELISA test. IL-6 concentration was assessed by comparing the sample's ODs with that of a standard IL-6 recombinant curve (FIG. 13).

J774 A1 macrophages [5] = assay: Nitrite release by J774 A1 macrophages incubated with rBAG3 (Example 12); type: cell-based, murine; settings: J774 A1 cells, 24 hours
Protocol: J774 A1 cells at 80% confluence were incubated with a control medium, BSA, LPS, or rBAG3 for 24 hours. […] supernatant from each sample was incubated with […] Griess reagent; the optical density at 550 nm (OD550) was measured with a Beckman DU62 spectrophotometer. The nitrite concentration was assessed by comparing the sample's OD at 550 nm with that of a standard sodium nitrite curve (FIG. 12).

[6] = tested on: inducible nitric oxide synthase (iNOS); assay: Effect of rBAG3 on iNOS expression in J774 cells (Western blot); type: cell-based, murine; settings: 20 hours
Protocol: (§2) In order to explore the functional consequences of the binding of BAG3 to macrophages, we tested the effect of rBAG3 expression on inducible nitric oxide synthase (iNOS) and cyclo-oxygenase-2 (COX-2) in the cells. J774 cells at 80% confluence were incubated with a control medium, BSA, LPS or rBAG3 for 20 hours. Polymyxin was added to verify the presence of non-specific effects of endotoxins still present after the purification of the BAG3 recombinant protein. COX-2 and iNOS were analyzed in cell lysates by Western blotting.

[7] = tested on: cyclo-oxygenase-2 (COX-2); assay: Effect of rBAG3 on COX-2 expression in J774 cells (Western blot); type: cell-based, murine; settings: 20 hours
Protocol: as §2

[8] = tested on: J774 murine monocyte cell line; assay: Macrophage activation: nitrite production with Griess reagent (Example 8); type: cell-based; settings: 24 h
Protocol: J774 cells were plated at a 60% confluence and incubated for 24 h with the BAG3 recombinant protein at concentrations of 10, 30, or 100 ng/ml. The nitrites production was verified in the culture medium using Griess reagent (1% sulphanilamide, 0.1% naphthyl ethylenediamine, 5% phosphoric acid) and measured using a Beckman DU-62 spectrophotometer at […].
The BAG3 recombinant protein was then used in macrophage activation assays in order to determine a possible role of the protein released in the serum in relation to the blood cells. To this end, the J774 murine monocyte cell line was treated with the BAG3 recombinant protein at different concentrations, using a pro-inflammatory agent, such as lipopolysaccharide (LPS), as a positive control. The activation of monocytes was measured by assay of nitrites. (FIG. 7).

With “FITC-BSA: bovine serum albumin conjugated to FITC, negative control [reference compound]” the “FITC-BSA positive cell % (±D.S.)” value (J774 A1 cells [1]; J774 cells, FITC-BSA negative control, flow cytometry) was 4.04 (±0.06) %.

In the case of “FITC-rBAG3: BAG3 recombinant protein conjugated to FITC using the FluoroTag Conjugation FITC kit”, the “FITC-rBAG3 positive cell % (±D.S.)” value (J774 A1 cells [1]; J774 cells, FITC-rBAG3 alone, flow cytometry) is reported as 15.7 (±0.45) %, the “(FITC-rBAG3)-(FITC-BSA) positive cell % (±D.S.)” value (J774 A1 cells [1]; J774 cells, FITC-rBAG3 minus FITC-BSA) is reported as 11.06 (±0.45) % and the “binding of FITC-BAG3 to macrophages of the J774 cell line” value (J774 A1 cells [1]; flow cytometry, 7, 14 and 70 nm FITC-BAG3) is reported as “binds the macrophages of the J774 cell line”. The “binding to heart muscle cells (HCM)” value (heart muscle cells (HCM)) was “not”, the “binding to pancreatic adenocarcinoma cells (PANC-1)” value [2] was “not” and the “binding to the cell surface of J774 macrophages” value (J774 A1 cells [3]; listed as BAG3 recombinant protein bound to fluorescein isothiocyanate (FITC)) was “binds the surface of macrophages”. The “binding to the cell surface of J774 macrophages” value (J774 A1 cells [3]; listed as rBAG3-FITC) was “confirmed”.

In the case of “rBAG3: BAG3 recombinant protein with a His tag”, the “release of interleukin-6 (IL-6)” value (J774 A1 macrophages [4]) is reported as “induces the release of interleukin-6 (IL-6)”, the release of nitrite (J774 A1 macrophages [5]) is reported as “induces the release of nitrite” and the iNOS enzyme levels [6] is reported as “increased”. For the same substance, the COX-2 enzyme levels [7] was “increased”, the “increase of nitrite production compared to the control” value ([8]; J774 cells, 100 ng/ml, p<0.001) was 200% and the “nitrite production, dependence on dose” value ([8]; J774 cells, 10, 30 or 100 ng/ml) was “dose-dependent”.
